Data: paper PMC3320615, “β-Microseminoprotein Endows Post Coital Seminal Plasma with Potent Candidacidal Activity by a Calcium- and pH-Dependent Mechanism” (PLoS Pathogens, 2012)

Columns and labels:
[1] = test system: Candida albicans ATCC 90028; assay: CFU assay with C. albicans; assay type: cell-based; details: for Estimate (difference between means of log values): control - treatment
Source text: Candida albicans strains: ATCC 90028, CAF-1-2, SC5814, BM4f35II68, vaginal clinical isolates from Dept. of Clincal Microbiology, Skåne University Hospital, SO_303369 and SO_503471. Candida parapsilosis strains: ATCC 90018, BD1800, BD17837, and BM24/68/09. Candida glabrata strains: ATCC 90030, clinical isolates from Dept. of Clincal Microbiology, Skåne University Hospital, SO_3336, SO_3400 and SO_503413. All strains were inoculated from frozen culture and grown in Yeast extract-Peptone-Dextrose (YPD) (Sigma) and on Sabourand Dextrose Broth (SAB) (Difco) plates at 30°C with 5% (v/v) CO2. If not otherwise stated, ATCC 90028 was used for candidacidal experiments.
Candida albicans was grown over night, washed, and resuspended in 10 mM Tris, 5 mM glucose, pH 7.4 or pH 4. Approximately 4×10^3 to 10^4 CFU of C. albicans were incubated with the test substance in low or neutral pH buffer for 4 h at 37°C. After incubation, the suspension was diluted and plated. Colonies were counted after two days incubation of the plates at 30°C. Bacteria from overnight cultures were inoculated in fresh medium and grown for 3 h, washed in 10 mM Tris, 5 mM glucose pH 7.4. Approximately 8×10^4 CFU were incubated with sample in 10 mM Tris, 5 mM glucose pH 7.4 or pH 4 for 1 h at 37°C, diluted, plated and incubated over night at 37°C and the colonies counted.
Statistical analysis was performed using SAS 9.2 software (SAS Institute, Cary, NC). Colony counts were log transformed. In order to choose the statistical method, interactions between the Treatment and Experiment were investigated. Treatments were screened by doing pair wise comparisons of each treatment to a control. Statistical tests used for the comparisons included MIXED procedure and LSMEANS statement. All tests where P-value<.05 were considered to indicate statistical significance. P-values were not adjusted for the multiple comparisons.
“Estimate” is the estimate of the difference between means of log values of treatment 1 and treatment 2

[2] = Liposome leakage (carboxyfluorescein release); assay type: biochemical; details: % ± SD of leakage with Triton X-100, CF fluorescence 520 nm, 37°C, at least triplicate
Method: Subsequently, buffer (10 mM Tris, pH 7.4) was added together with 0.1 M carboxyfluorescein (CF) (Sigma, St Louis, MO). After hydration, the lipid mixture was subjected to eight freeze-thaw cycles consisting of freezing in liquid nitrogen and heating to 60°C. Unilamellar liposomes of about Ø140 nm were generated by multiple extrusions through polycarbonate filters (pore size 100 nm) mounted in a […] (Avestin, Ottawa, Canada) at 22°C. Untrapped CF was then removed by two gel filtrations (Sephadex G-50) at 22°C, with Tris buffer as eluent. CF release was determined by monitoring the emitted fluorescence at 520 nm from liposome dispersions (10 mM lipid in 10 mM Tris). An absolute leakage scale was obtained by disrupting the liposomes at the end of the experiment through addition of 0.8 mM Triton X100 (Sigma, St Louis, MO), causing 100% release and dequenching of CF. Although calcein is frequently used for pH-dependent leakage studies, the high charge of this dye has been noted to influence its leakage behavior in the presence of highly cationic peptides. Instead, therefore, CF was used as a leakage marker at both pH 6.0 and 7.4, avoiding pH-dependent fluorescence effects through neutralization prior to probing the limiting leakage in case of pH 6.0 leakage. Throughout, a SPEX-fluorolog 1650 0.22-m double spectrometer (SPEX Industries, Edison, NJ) was used for the liposome leakage assay. Measurements were performed in at least triplicate at 37°C.

Sequence: RIFKKEDCKYI [MSP66–76, eleven residues at the very tip of the loop (residue 66–76)]
- Estimate (difference between means of log values) ([1]; 50 µM + 50 µM EDTA, pH 7.4, + 50 µM calcium chloride, experiment 1): 0.4123
- Estimate (difference between means of log values) ([1]; 50 µM + 50 µM EDTA, pH 7.4, + 50 µM calcium chloride, experiment 2): -0.3545
- Estimate (difference between means of log values) ([1]; 50 µM + 50 µM EDTA, pH 7.4, + 50 µM calcium chloride, experiment 3): -0.7827
- Estimate (difference between means of log values) ([1]; 50 µM + 50 µM EDTA, pH 7.4, + 50 µM calcium chloride, experiment 4): 0.2633
- Estimate (difference between means of log values) ([1]; 50 µM + 50 µM EDTA, pH 7.4, + 50 µM calcium chloride, experiment 5): 0.02251
- Estimate (difference between means of log values) ([1]; 50 µM + 50 µM EDTA, pH 7.4, + 75 µM calcium chloride, experiment 1): 0.2228
- Estimate (difference between means of log values) ([1]; 50 µM + 50 µM EDTA, pH 7.4, + 75 µM calcium chloride, experiment 2): -0.4921
- Estimate (difference between means of log values) ([1]; 50 µM + 50 µM EDTA, pH 7.4, + 75 µM calcium chloride, experiment 3): -0.1876
- Estimate (difference between means of log values) ([1]; 50 µM + 50 µM EDTA, pH 7.4, + 75 µM calcium chloride, experiment 4): -0.2469
- Estimate (difference between means of log values) ([1]; 50 µM + 50 µM EDTA, pH 7.4, + 75 µM calcium chloride, experiment 5): -0.2312
- Estimate (difference between means of log values) ([1]; 50 µM + 50 µM EDTA, pH 7.4, + 100 µM calcium chloride, experiment 1): 0.07455
- Estimate (difference between means of log values) ([1]; 50 µM + 50 µM EDTA, pH 7.4, + 100 µM calcium chloride, experiment 2): -0.1459
- Estimate (difference between means of log values) ([1]; 50 µM + 50 µM EDTA, pH 7.4, + 100 µM calcium chloride, experiment 3): -0.4793
- Estimate (difference between means of log values) ([1]; 50 µM + 50 µM EDTA, pH 7.4, + 100 µM calcium chloride, experiment 4): -0.1979
- Estimate (difference between means of log values) ([1]; 50 µM + 50 µM EDTA, pH 7.4, + 100 µM calcium chloride, experiment 5): -0.3209
- Estimate (difference between means of log values) ([1]; 50 µM + 50 µM EDTA, pH 7.4, + 200 µM calcium chloride, experiment 1): 0.4296
- Estimate (difference between means of log values) ([1]; 50 µM + 50 µM EDTA, pH 7.4, + 200 µM calcium chloride, experiment 2): -0.6341
- Estimate (difference between means of log values) ([1]; 50 µM + 50 µM EDTA, pH 7.4, + 200 µM calcium chloride, experiment 3): -0.7050
- Estimate (difference between means of log values) ([1]; 50 µM + 50 µM EDTA, pH 7.4, + 200 µM calcium chloride, experiment 4): -0.2560
- Estimate (difference between means of log values) ([1]; 50 µM + 50 µM EDTA, pH 7.4, + 200 µM calcium chloride, experiment 5): 0.04894
- Estimate (difference between means of log values) ([1]; 50 µM + 50 µM EDTA, pH 7.4, no calcium, experiment 1): 5.2769
- Estimate (difference between means of log values) ([1]; 50 µM + 50 µM EDTA, pH 7.4, no calcium, experiment 2): 4.2266
- Estimate (difference between means of log values) ([1]; 50 µM + 50 µM EDTA, pH 7.4, no calcium, experiment 3): 2.8351
- Estimate (difference between means of log values) ([1]; 50 µM + 50 µM EDTA, pH 7.4, no calcium, experiment 4): 4.2317
- Estimate (difference between means of log values) ([1]; 50 µM + 50 µM EDTA, pH 7.4, no calcium, experiment 5): 5.0824
- Estimate (difference between means of log values) ([1]; 50 µM, no EDTA, pH 4, + 50 µM calcium chloride, experiment 1): 2.5872
- Estimate (difference between means of log values) ([1]; 50 µM, no EDTA, pH 4, + 50 µM calcium chloride, experiment 2): 2.7886
- Estimate (difference between means of log values) ([1]; 50 µM, no EDTA, pH 4, + 50 µM calcium chloride, experiment 3): 1.3256
- Estimate (difference between means of log values) ([1]; 50 µM, no EDTA, pH 4, + 50 µM calcium chloride, experiment 4): 2.0744
- Estimate (difference between means of log values) ([1]; 50 µM, no EDTA, pH 4, + 50 µM calcium chloride, experiment 5): 1.7552
- Estimate (difference between means of log values) ([1]; 50 µM, no EDTA, pH 4, + 75 µM calcium chloride, experiment 1): 2.5170
- Estimate (difference between means of log values) ([1]; 50 µM, no EDTA, pH 4, + 75 µM calcium chloride, experiment 2): 1.9220
- Estimate (difference between means of log values) ([1]; 50 µM, no EDTA, pH 4, + 75 µM calcium chloride, experiment 3): -0.3426
- Estimate (difference between means of log values) ([1]; 50 µM, no EDTA, pH 4, + 75 µM calcium chloride, experiment 4): 1.5746
- Estimate (difference between means of log values) ([1]; 50 µM, no EDTA, pH 4, + 75 µM calcium chloride, experiment 5): 1.0684
- Estimate (difference between means of log values) ([1]; 50 µM, no EDTA, pH 4, + 100 µM calcium chloride, experiment 1): 0.6973
- Estimate (difference between means of log values) ([1]; 50 µM, no EDTA, pH 4, + 100 µM calcium chloride, experiment 2): 1.1772
- Estimate (difference between means of log values) ([1]; 50 µM, no EDTA, pH 4, + 100 µM calcium chloride, experiment 3): 0.01412
- Estimate (difference between means of log values) ([1]; 50 µM, no EDTA, pH 4, + 100 µM calcium chloride, experiment 4): 1.0688
- Estimate (difference between means of log values) ([1]; 50 µM, no EDTA, pH 4, + 100 µM calcium chloride, experiment 5): 0.1005
- Estimate (difference between means of log values) ([1]; 50 µM, no EDTA, pH 4, + 200 µM calcium chloride, experiment 1): 1.0661
- Estimate (difference between means of log values) ([1]; 50 µM, no EDTA, pH 4, + 200 µM calcium chloride, experiment 2): 0.6082
- Estimate (difference between means of log values) ([1]; 50 µM, no EDTA, pH 4, + 200 µM calcium chloride, experiment 3): -0.8572
- Estimate (difference between means of log values) ([1]; 50 µM, no EDTA, pH 4, + 200 µM calcium chloride, experiment 4): 0.6184
- Estimate (difference between means of log values) ([1]; 50 µM, no EDTA, pH 4, + 200 µM calcium chloride, experiment 5): -1.1924
- Estimate (difference between means of log values) ([1]; 50 µM, no EDTA, pH 4, no calcium, experiment 1): 5.4425
- Estimate (difference between means of log values) ([1]; 50 µM, no EDTA, pH 4, no calcium, experiment 2): 4.7863
- Estimate (difference between means of log values) ([1]; 50 µM, no EDTA, pH 4, no calcium, experiment 3): 3.5454
- Estimate (difference between means of log values) ([1]; 50 µM, no EDTA, pH 4, no calcium, experiment 4): 4.0909
- Estimate (difference between means of log values) ([1]; 50 µM, no EDTA, pH 4, no calcium, experiment 5): 3.8004
- Estimate (difference between means of log values) ([1]; 140 µM + 0.5 mM calcium, pH 4, experiment 1): 1.0371
- Estimate (difference between means of log values) ([1]; 140 µM + 0.5 mM calcium, pH 4, experiment 2): 0.7970
- Estimate (difference between means of log values) ([1]; 140 µM + 0.5 mM calcium, pH 4, experiment 3): -0.5619
- Estimate (difference between means of log values) ([1]; 140 µM + 0.5 mM calcium, pH 4, experiment 4): 0.4135
- Estimate (difference between means of log values) ([1]; 140 µM + 0.5 mM magnesium, pH 4, experiment 1): 5.4081
- Estimate (difference between means of log values) ([1]; 140 µM + 0.5 mM magnesium, pH 4, experiment 2): 4.1263
- Estimate (difference between means of log values) ([1]; 140 µM + 0.5 mM magnesium, pH 4, experiment 3): 2.8985
- Estimate (difference between means of log values) ([1]; 140 µM + 0.5 mM magnesium, pH 4, experiment 4): 5.0596
- Estimate (difference between means of log values) ([1]; 140 µM, pH 4, experiment 1): 5.5432
- Estimate (difference between means of log values) ([1]; 140 µM, pH 4, experiment 2): 4.1263
- Estimate (difference between means of log values) ([1]; 140 µM, pH 4, experiment 3): 2.8985
- Estimate (difference between means of log values) ([1]; 140 µM, pH 4, experiment 4): 4.7326
- Calcium concentration that completely inhibited the antifungal activity ([1]; neutral pH (MSP66–76 with equimolar EDTA)): 50 µM
- Liposome leakage ([2]; pH 6.0, +EDTA, DOPC/ergosterol liposomes): 41±9%
- Liposome leakage ([2]; pH 6.0, without EDTA, DOPC/ergosterol liposomes): 31±6%
- Liposome leakage ([2]; pH 7.4, +EDTA): 16±7%
- Liposome leakage ([2]; pH 7.4, without EDTA): 29±6%
